The values that follow are results of earlier work, collected in patent US20110038945A1, “Orally ingestable medicament and method for treating a heartburn inducing event or an acid reflux episode in a living human subject” (priority 2009, published 2011).

Take `COc1cc(N)c(Cl)cc1C(=O)NC1CCN(CCCOc2ccc(F)cc2)CC1OC` (centres unmarked) [cisapride]: the deaths result (included in the heart rhythm abnormality reports) is listed as “more than 80 deaths”. Further, for the setting “linked to the drug at recall from the U.S. market in 2000”, the “reports of heart rhythm abnormalities” value is listed as “more than 300 reports”.
